Values quoted from earlier work in patent publication US20140017301A1, “DRUG-FREE COMPOSITIONS AND METHODS FOR DIMINISHING PERIPHERAL INFLAMMATION AND PAIN” (priority 2011, published 2014).

Conditions: excipients of Table 3

| Compound | log P |
| --- | --- |
| O=C(O)CNCO [2-(hydroxymethylamino)acetic adic] | −2.2 |
| OCC(O)CS (stereo not shown) [3-sulfanylpropane-1,2-diol] | −0.57 |
| Benzalkonium | 3.67 |
| CCCCOC(=O)c1ccc(O)cc1 [Butyl 4-hydroxybenzoate; butylparabene, Butyl 4-hydroxybenzoate] | 3.07 |
| Cc1ccc(C(C)C)c(O)c1 [6-isopropyl-m-cresol; thymol, 6-isopropyl-m-cresol] | 3.21 |
| C/C=C/C=C/C(=O)O [Sorbic acid] | 1.38 |
| CCOC(=O)c1ccc(O)cc1 [Ethyl 4-hydroxybenzoate; ethylparabene, Ethyl 4-hydroxybenzoate] | 2.16 |
| CC(=O)C1C(=O)C=C(C)OC1=O (stereo not shown) [Dehydroacetic acid] | −0.05 |
| NC(N)=S [Thiourea] | −0.96 |
| Tocopherol | 9.76 |
| Cc1cc(O)c(C)c(C)c1O [2,3,5-trimethylbenzene-1,4-diol] | 2.12 |
| OCCc1ccccc1 [Phenylethanol] | 1.61 |
| CCCOC(=O)c1ccc(O)cc1 [Propyl 4-hydroxybenzoate; propylparabene, Propyl 4-hydroxybenzoate] | 2.63 |
| COC(=O)c1ccc(O)cc1 [Methyl 4-hydroxybenzoate; methylparabene, Methyl 4-hydroxybenzoate] | 1.72 |
| COc1ccc(O)c(C(C)(C)C)c1 [Butylated hydroxyanisole, BHA, Butylated hydroxyanisole] | 3.13 |
| OCc1ccccc1 [Benzyl alcohol] | 1.23 |
| O=C1C(N(CO)C(=O)NCO)N(CO)C(=O)N1CO (stereo not shown) [Diazodinyl Urea (Germall II), Diazodinyl Urea] | −3.2 |
| CC(=O)OC1CC(C)OC(C)O1 (stereo not shown) [(2,6-dimethyl-1,3-dioxan-4-yl) acetate] | 0.87 |
| CCCCCCOc1cc(C)c(O)c(C)c1C [4-hexoxy-2,3,6-trimethylphenol, HTHQ, 4-hexoxy-2,3,6-trimethylphenol] | 4.81 |
| O=c1[nH]sc2ccccc12 [1,2-benzothiazol-3-one] | 1.08 |
| OCCOc1ccccc1 [Phenoxyethanol] | 1.26 |
| O=[N+]([O-])C1(Br)COCOC1 [5-Bromo-5-nitro-1,3-dioxane, bronidox, 5-Bromo-5-nitro-1,3-dioxane] | 0.44 |
| CC1(C)C(=O)N(CO)C(=O)N1CO [1,3-Dimethylol-5,5-dimethylhydantoin] | 0.6 |
| Propanediol | −0.71 |
| Cn1sccc1=O [2-methyl-1,2-thiazol-3-one] | −0.06 |
